Patent publication US20250123269A1 (priority 2023, published 2025)

Legend:
[1] = tested on: SARS-COV-2 B.1.617.2 delta; type: cell-based
[2] = tested on: SARS-COV-2 B.1.1.529 omicron; type: cell-based

Row | Structure (SMILES) | dose-dependent inhibition of infection [1] | inhibition of infection [1] | reduction of infection [1] | dose-dependent inhibition of infection [2] | inhibition of infection [2] | reduction of infection [2]
1 | O=c1nc(NO)ccn1[C@@H]1O[C@H](CO)[C@@H](O)[C@H]1O [EIDD-1931] | dose-dependent inhibition of infection | complete inhibition | at least 50% | dose-dependent inhibition of infection | complete inhibition | at least 50%
2 | Cc1c(O)cccc1C(=O)N[C@@H](CSc1ccccc1)[C@H](O)CN1C[C@H]2CCCC[C@H]2C[C@H]1C(=O)NC(C)(C)C [nelfinavir] | dose-dependent inhibition of infection | did not completely inhibit infection |  | dose-dependent inhibition of infection | did not completely inhibit infection | 
3 | CC(C)(C)[C@H](NC(=O)C(F)(F)F)C(=O)N1C[C@H]2[C@@H]([C@H]1C(=O)N[C@H](C#N)C[C@@H]1CCNC1=O)C2(C)C [nirmatrelvir, Nirmatrelvir] | dose-dependent inhibition of infection |  | 50% | dose-dependent inhibition of infection | nearly completely inhibited | 
